# Reference: patent US20240083853A1, “HSD17B13 INHIBITORS AND USES THEREOF” (FL2022-001, Inc., priority 2020, published 2024)
# pIC50: −log10 of the molar value. Structures can show the parent of a compound that is named as a salt.
# Target: T1, Recombinant human HSD17B13 enzyme (Homo sapiens, UniProt Q7Z5P4)
# T1 sequence (Q7Z5P4 20-300): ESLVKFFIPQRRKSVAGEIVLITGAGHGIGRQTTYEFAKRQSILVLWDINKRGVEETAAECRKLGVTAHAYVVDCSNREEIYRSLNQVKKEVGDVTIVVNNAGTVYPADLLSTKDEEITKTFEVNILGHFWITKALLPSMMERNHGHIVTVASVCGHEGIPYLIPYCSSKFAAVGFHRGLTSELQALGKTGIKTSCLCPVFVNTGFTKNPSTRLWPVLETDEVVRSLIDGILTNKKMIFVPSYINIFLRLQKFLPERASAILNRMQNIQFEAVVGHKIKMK
# Experiment: HSD17b13 NAD(P)H-Glo biochemical assay
# Conditions: 50 uM estradiol, 1 mM NAD+, NAD(P)H-Glo luminescence; read-out: HSD17β13 IC50
# In short: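 Luminescent NAD(P)H-Glo read-out, taken after 1 hour at RT, measured cofactor reduction. Substrate and cofactor were estradiol at 50 uM and NAD+ at 1 mM final, reacted with the recombinant human enzyme for 3 hours at 37° C in 20 mM Tris pH7.4, 0.002% Tween-20, 0.02% BSA. Compound was pre-incubated with enzyme for 20 minutes at RT.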
row,Structure (SMILES),pIC50
1,"CC1(C)CCN(c2cnc(-n3nnc4cc(F)c(O)c(F)c43)nc2)CC1 [Compound 26.20, 1-(5-(4,4-Dimethylpiperidin-1-yl)pyrimidin-2-yl)-5,7-difluoro-1H-benzo[d][1,2,3]triazol-6-ol]",> 7.00
2,"Oc1c(F)cc2nnn(-c3ncc(N4CC5(CCOCC5)C4)cn3)c2c1F [Compound 26.21, 1-(5-(7-Oxa-2-azaspiro[3.5]nonan-2-yl)pyrimidin-2-yl)-5,7-difluoro-1H-benzo[d][1,2,3]triazol-6-ol]",6.00 to 7.00
3,"CC1(C)CCN(c2ccc(-n3nnc4cc(F)c(O)c(F)c43)nn2)CC1 [Compound 26.23, 1-(6-(4,4-Dimethylpiperidin-1-yl)pyridazin-3-yl)-5,7-difluoro-1H-benzo[d][1,2,3]triazol-6-ol]",6.00 to 7.00
4,"Oc1c(F)cc2nnn(-c3ccc(N4CC5(CCOCC5)C4)nn3)c2c1F [Compound 26.24, 1-(6-(7-Oxa-2-azaspiro[3.5]nonan-2-yl)pyridazin-3-yl)-5,7-difluoro-1H-benzo[d][1,2,3]triazol-6-ol]",4.52 to 6.00
5,"CS(=O)(=O)N1CCN(c2ccc(-n3nnc4cc(F)c(O)c(F)c43)nn2)CC1 [Compound 26.25, 5,7-Difluoro-1-(6-(4-(methylsulfonyl)piperazin-1-yl)pyridazin-3-yl)-1H-benzo[d][1,2,3]triazol-6-ol]",4.52 to 6.00
6,"Oc1c(F)cc2nnn(-c3ccc(N4CCO[C@@H](c5ccccc5)C4)cc3)c2c1F [Compound 26.26, (S)-5,7-Difluoro-1-(4-(2-phenylmorpholino)phenyl)-1H-benzo[d][1,2,3]triazol-6-ol]",6.00 to 7.00
7,"Oc1c(F)cc2nnn(-c3ccc(N4CCO[C@H](c5ccccc5)C4)cc3)c2c1F [Compound 26.27, (R)-5,7-Difluoro-1-(4-(2-phenylmorpholino)phenyl)-1H-benzo[d][1,2,3]triazol-6-ol]",6.00 to 7.00
8,"Oc1c(F)cc2nnn(-c3ccc(N4CCOC[C@H]4c4ccccc4)cc3)c2c1F [Compound 26.28, (R)-5,7-Difluoro-1-(4-(3-phenylmorpholino)phenyl)-1H-benzo[d][1,2,3]triazol-6-ol]",6.00 to 7.00
9,"Oc1c(F)cc2nnn(-c3ccc(N4CCOC[C@@H]4c4ccccc4)cc3)c2c1F [Compound 26.29, (S)-5,7-Difluoro-1-(4-(3-phenylmorpholino)phenyl)-1H-benzo[d][1,2,3]triazol-6-ol]",6.00 to 7.00
10,"CC1(C)CCC(c2ccc(-n3ncc4cc(F)c(O)c(F)c43)cc2)CC1 [Compound 27, 1-(4-(4,4-Dimethylcyclohexyl)phenyl)-5,7-difluoro-1H-indazol-6-ol]",> 7.00
11,"Oc1c(F)cc2cnn(-c3ccc(C4=CCCCC4)cc3)c2c1F [Compound 27.1, 5,7-Difluoro-1-(2′,3′,4′,5′-tetrahydro-[1,1′-biphenyl]-4-yl)-1H-indazol-6-ol]",> 7.00
12,"CC1(C)CC=C(c2ccc(-n3ncc4cc(F)c(O)c(F)c43)cc2)CC1 [Compound 27.2, 1-(4′,4′-Dimethyl-2′,3′,4′,5′-tetrahydro-[1,1′-biphenyl]-4-yl)-5,7-difluoro-1H-indazol-6-ol]",> 7.00
13,"Oc1c(F)cc2cnn(-c3ccc(C4=CCOCC4)cc3)c2c1F [Compound 27.3, 1-(4-(3,6-Dihydro-2H-pyran-4-yl)phenyl)-5,7-difluoro-1H-indazol-6-ol]",> 7.00
14,"CS(=O)(=O)N1CC=C(c2ccc(-n3ncc4cc(F)c(O)c(F)c43)cc2)CC1 [Compound 27.4, 5,7-Difluoro-1-(4-(1-(methylsulfonyl)-1,2,3,6-tetrahydropyridin-4-yl)phenyl)-1H-indazol-6-ol]",> 7.00
15,"Oc1c(F)cc2cnn(-c3ccc(C4CCCCC4)cc3)c2c1F [Compound 27.5, 1-(4-Cyclohexylphenyl)-5,7-difluoro-1H-indazol-6-ol]",> 7.00
16,"Oc1c(F)cc2cnn(-c3ccc(C4CCOCC4)cc3)c2c1F [Compound 27.6, 5,7-Difluoro-1-(4-(tetrahydro-2H-pyran-4-yl)phenyl)-1H-indazol-6-ol]",> 7.00
17,"CS(=O)(=O)N1CCC(c2ccc(-n3ncc4cc(F)c(O)c(F)c43)cc2)CC1 [Compound 27.7, 5,7-Difluoro-1-(4-(1-(methylsulfonyl)piperidin-4-yl)phenyl)-1H-indazol-6-ol]",> 7.00
18,"CC(C)N1CCC(c2ccc(-n3ncc4cc(F)c(O)c(F)c43)cc2)CC1 [Compound 27.8, 5,7-Difluoro-1-(4-(1-isopropylpiperidin-4-yl)phenyl)-1H-indazol-6-ol]",> 7.00
19,"CS(=O)(=O)N1CCC(c2ccc(-n3nnc4cc(F)c(O)c(F)c43)cc2)CC1 [Compound 27.9, 5,7-Difluoro-1-(4-(1-(methylsulfonyl)piperidin-4-yl)phenyl)-1H-benzo[d][1,2,3]triazol-6-ol]",> 7.00
20,"CN1CCC(c2ccc(-n3ncc4cc(F)c(O)c(F)c43)cc2)CC1 [Compound 27.10, 5,7-Difluoro-1-(4-(1-methylpiperidin-4-yl)phenyl)-1H-indazol-6-ol]",6.00 to 7.00
21,"CS(=O)(=O)N1CCC(c2ccc(-n3cnc4cc(F)c(O)c(F)c43)cc2)CC1 [Compound 28, 5,7-Difluoro-1-(4-(1-(methylsulfonyl)piperidin-4-yl)phenyl)-1H-benzo[d]imidazol-6-ol]",> 7.00
22,"CCN1CCC(c2ccc(-n3ncc4cc(F)c(O)c(F)c43)cc2)CC1 [Compound 29, 1-(4-(1-Ethylpiperidin-4-yl)phenyl)-5,7-difluoro-1H-indazol-6-ol TFA salt]",> 7.00
23,"CS(=O)(=O)N1CC(c2ccc(-n3ncc4cc(F)c(O)c(F)c43)cc2)C1 [Compound 30, 5,7-Difluoro-1-(4-(1-(methylsulfonyl)azetidin-3-yl)phenyl)-1H-indazol-6-ol]",6.00 to 7.00
24,"CS(=O)(=O)N1CCCC(c2ccc(-n3ncc4cc(F)c(O)c(F)c43)cc2)C1 (centres unmarked) [Compound 30.1, 5,7-Difluoro-1-(4-(1-(methylsulfonyl)piperidin-3-yl)phenyl)-1H-indazol-6-ol]",> 7.00
25,"CS(=O)(=O)N1CCC(Oc2ccc(-n3ncc4cc(F)c(O)c(F)c43)cc2)CC1 [Compound 31, 5,7-Difluoro-1-(4-((1-(methylsulfonyl)piperidin-4-yl)oxy)phenyl)-1H-indazol-6-ol]",6.00 to 7.00
26,"CC1CN(c2ccc(-n3ncc4cc(F)c(O)c(F)c43)cc2)CC(C)S1(=O)=O (centres unmarked) [Compound 32, 4-(4-(5,7-Difluoro-6-hydroxy-1H-indazol-1-yl)phenyl)-2,6-dimethylthiomorpholine 1,1-dioxide]",6.00 to 7.00
27,"[O-][S+]1CCC2(CC1)CN(c1ccc(-n3ncc4cc(F)c(O)c(F)c43)cc1)C2 [Compound 32.1, 2-(4-(5,7-Difluoro-6-hydroxy-1H-indazol-1-yl)phenyl)-7-thia-2-azaspiro[3.5]nonane 7-oxide]",6.00 to 7.00
28,"[O-][S+]1CC2(CN(c3ccc(-n4ncc5cc(F)c(O)c(F)c54)cc3)C2)C1 [Compound 32.2, 6-(4-(5,7-Difluoro-6-hydroxy-1H-indazol-1-yl)phenyl)-2-thia-6-azaspiro[3.3]heptane 2-oxide]",6.00 to 7.00

# Same assay, conditions: 3 h; at 10 uM compound; read-out: HSD17β13 % at 10 uM
row,Structure (SMILES),inhibition at 10 µM
1,"CS(=O)(=O)N1CCN(c2cnc(-n3nnc4cc(F)c(O)c(F)c43)nc2)CC1 [Compound 26.22, 5,7-Difluoro-1-(5-(4-(methylsulfonyl)piperazin-1-yl)pyrimidin-2-yl)-1H-benzo[d][1,2,3]triazol-6-ol]",45%
